This is an account of results in US7799809B2, “Carboxamide compounds and their use as calpain inhibitors” (Abbott GmbH & Co. KG, priority 2006, dated 2010).

What all share (assay type): biochemical
The target of assay [1] is T1, cathepsin L (Homo sapiens, UniProt P07711).
T1 construct: cathepsin L—isolated from human liver (Calbiochem #219402); purchased Calbiochem 219402; host or cells: human liver (tissue-derived)
As to the kind of experiment: Cathepsin L enzyme inhibition in vitro (kinetic fluorescence assay). The note with it: cathepsin L isolated from human liver vs calpain I. A digest of the protocol: (§1)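 Inhibition is measured at room temperature in cysteine-containing MES buffer, pH 6.0, by continuous fluorescence at 460 nm. Cathepsin S (0.5 nM) uses 20 μM Z-Val-Val-Arg-AMC; L (1 nM) and B (0.25 nM) use Z-Phe-Arg-AMC at 2 and 100 μM respectively.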

The target in assay [2] is T2, cathepsin K (Homo sapiens, UniProt P43235).
T2 construct: purchased Calbiochem 342001; host or cells: E. coli
T2 sequence (P43235 115-329): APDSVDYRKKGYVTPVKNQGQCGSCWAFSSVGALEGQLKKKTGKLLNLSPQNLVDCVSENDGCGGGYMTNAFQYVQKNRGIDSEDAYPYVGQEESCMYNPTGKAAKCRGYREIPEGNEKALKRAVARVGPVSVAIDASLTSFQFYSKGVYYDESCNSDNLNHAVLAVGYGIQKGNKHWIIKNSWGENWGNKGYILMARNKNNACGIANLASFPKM
The assay can be described thus: Cathepsin K enzyme inhibition in vitro (kinetic fluorescence assay). The note with it: cathepsin K activated from recombinant human procathepsin K vs calpain I.

The target in assay [3] is T3, cathepsin B (Homo sapiens, UniProt P07858).
T3 construct: cathepsin B—isolated from human liver (Calbiochem #219362); purchased Calbiochem 219362; host or cells: human liver (tissue-derived)
The assay can be described thus: Cathepsin B enzyme inhibition in vitro (kinetic fluorescence assay). Particulars: cathepsin B isolated from human liver vs calpain I. A digest of the protocol:
as §1

Assay [4] deals with T4, cathepsin S (Homo sapiens, UniProt P25774).
T4 construct: purchased Calbiochem 219343; host or cells: E. coli
The assay can be described thus: Cathepsin S enzyme inhibition in vitro (kinetic fluorescence assay). The note with it: recombinant human cathepsin S vs calpain I. A digest of the protocol:
as §1

Molecules are shown by their SMILES.

T4 sequence (P25774 115-331): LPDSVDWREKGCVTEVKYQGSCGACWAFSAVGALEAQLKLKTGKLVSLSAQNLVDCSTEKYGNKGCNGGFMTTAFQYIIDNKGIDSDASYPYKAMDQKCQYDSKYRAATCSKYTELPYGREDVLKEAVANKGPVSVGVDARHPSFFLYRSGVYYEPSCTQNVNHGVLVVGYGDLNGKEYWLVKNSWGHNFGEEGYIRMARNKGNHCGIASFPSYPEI
T1 sequence (P07711 114-333): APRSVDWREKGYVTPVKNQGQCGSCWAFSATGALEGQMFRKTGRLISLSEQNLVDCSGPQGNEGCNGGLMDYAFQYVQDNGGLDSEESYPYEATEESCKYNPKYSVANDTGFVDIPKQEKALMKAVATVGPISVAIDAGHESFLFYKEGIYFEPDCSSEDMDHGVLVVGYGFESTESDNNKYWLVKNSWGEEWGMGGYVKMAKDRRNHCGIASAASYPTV

With `NC(=O)C(=O)C(Cc1ccc(OC(F)(F)F)cc1)NC(=O)c1cccnc1-n1ccc(-c2ccc(F)cc2)n1` (centres unmarked) [Example 132, N-[3-Amino-2,3-dioxo-1-({4-[(trifluoromethyl)oxy]phenyl}methyl)propyl]-2-[3-(4-fluorophenyl)-1H-pyrazol-1-yl]pyridine-3-carboxamide], the “Sel cat. L: Ki(cathepsin L)/Ki(calpain) ratio” value in assay [1] is “++ (++ means a Ki(cathepsin L)/Ki(calpain) ratio of ≧50)”. The “Sel cat. K: Ki(cathepsin K)/Ki(calpain) ratio” value in assay [2] is recorded as “++ (++ means a Ki(cathepsin K)/Ki(calpain) ratio of ≧30)”. In addition, the “Sel cat. B: Ki(cathepsin B)/Ki(calpain) ratio” value in assay [3] is reported as “+ (+ means 10≦Ki(cathepsin B)/Ki(calpain)<30)”. In addition, in assay [4], the “Sel cat. S: Ki(cathepsin S)/Ki(calpain) ratio” value is reported as “++ (++ means a Ki(cathepsin S)/Ki(calpain) ratio of ≧100)”.
Taken in the same sequence, the figures for `NC(=O)C(=O)C(Cc1ccc(OC(F)(F)F)cc1)NC(=O)c1cccnc1-n1ccc(-c2ccccc2)n1` (centres unmarked) [Example 133, N-[3-Amino-2,3-dioxo-1-({4-[(trifluoromethyl)oxy]phenyl}methyl)propyl]-2-(3-phenyl-1H-pyrazol-1-yl)pyridine-3-carboxamide] were “++ (++ means a Ki(cathepsin L)/Ki(calpain) ratio of ≧50)”, “++ (++ means a Ki(cathepsin K)/Ki(calpain) ratio of ≧30)”, “++ (++ means a Ki(cathepsin B)/Ki(calpain) ratio of ≧30)” and “++ (++ means a Ki(cathepsin S)/Ki(calpain) ratio of ≧100)”.
Taken in the same sequence, the figures for `NC(=O)C(=O)C(Cc1ccc(OC(F)(F)F)cc1)NC(=O)c1cccnc1-n1ccc(-c2cccc(C(F)(F)F)c2)n1` (centres unmarked) [Example 134, N-[3-Amino-2,3-dioxo-1-({4-[(trifluoromethyl)oxy]phenyl}methyl)propyl]-2-{3-[3-(trifluoromethyl)phenyl]-1H-pyrazol-1-yl}pyridine-3-carboxamide] were “+ (+ means 30≦Ki(cathepsin L)/Ki(calpain)<50)”, “++ (++ means a Ki(cathepsin K)/Ki(calpain) ratio of ≧30)”, “++ (++ means a Ki(cathepsin B)/Ki(calpain) ratio of ≧30)” and “+ (+ means 50≦Ki(cathepsin S)/Ki(calpain)<100)”.
Taken in the same sequence, the figures for `COc1ccc(CC(NC(=O)c2cccnc2-n2ccc(-c3cccc4ccccc34)n2)C(=O)C(N)=O)cc1` (centres unmarked) [Example 135, N-(3-Amino-1-{[4-(methyloxy)phenyl]methyl}-2,3-dioxopropyl)-2-(3-naphthalen-1-yl-1H-pyrazol-1-yl)pyridine-3-carboxamide] were “++ (++ means a Ki(cathepsin L)/Ki(calpain) ratio of ≧50)”, “++ (++ means a Ki(cathepsin K)/Ki(calpain) ratio of ≧30)”, “++ (++ means a Ki(cathepsin B)/Ki(calpain) ratio of ≧30)” and “++ (++ means a Ki(cathepsin S)/Ki(calpain) ratio of ≧100)”.
On to `COc1ccc(CC(NC(=O)c2cccnc2-n2ccc(-c3ccc(F)cc3OC)n2)C(=O)C(N)=O)cc1` (centres unmarked) [Example 136, N-(3-Amino-1-{[4-(methyloxy)phenyl]methyl}-2,3-dioxopropyl)-2-{3-[4-fluoro-2-(methyloxy)phenyl]-1H-pyrazol-1-yl}pyridine-3-carboxamide], for which, in assay [1], the “Sel cat. L: Ki(cathepsin L)/Ki(calpain) ratio” value is given as “++ (++ means a Ki(cathepsin L)/Ki(calpain) ratio of ≧50)”. In addition, the “Sel cat. K: Ki(cathepsin K)/Ki(calpain) ratio” value in assay [2] was “++ (++ means a Ki(cathepsin K)/Ki(calpain) ratio of ≧30)”. Also, in assay [3], the “Sel cat. B: Ki(cathepsin B)/Ki(calpain) ratio” value is “++ (++ means a Ki(cathepsin B)/Ki(calpain) ratio of ≧30)”. The “Sel cat. S: Ki(cathepsin S)/Ki(calpain) ratio” value in assay [4] was “++ (++ means a Ki(cathepsin S)/Ki(calpain) ratio of ≧100)”.
